Reference: patent US8497283B2, “Autotaxin inhibitors” (Merck Patent GmbH, priority 2009, dated 2013)
pIC50: −log10 of the molar value.

Biological target: T1, recombinant autotaxin (Homo sapiens, UniProt Q13822)
T1 construct: made in house; host or cells: Hi5 insect cells (baculovirus)
Assay: Autotaxin assay (Amplex Red fluorescence, LPC substrate)
Format: biochemical
Conditions: for pIC50: ten serial 1:3 dilutions starting at 30 μM, duplicates, 75 μM LPC, values given as upper bounds
Procedure: Autotaxin activity is measured indirectly by means of Amplex Red Reagent. In this course, Amplex Red is measured as fluorogenic indicator for generated H2O2. Autotaxin converts substrate lysophosphatidylcholine (LPC) to phosphocholine and lysophosphatidylic acid (LPA). After the conversion phosphocholine is reacted with alkaline phosphatase to obtain inorganic phosphate and choline. During the next step choline is oxidized with choline oxidase to yield betaine, whereby H2O2 is generated. H2O2 reacts with Amplex Red Reagent in the presence of peroxidase (Horseradish peroxidase) in an 1:1 stochiometry and yields highly fluorescent resorufin. The generated fluorescence is measured in a reaction-dependent kinetic mode in order to enable subtraction of fluorescence signals of possible other fluorescent compounds that are not part of the reaction from total measured fluorescence.
1.5 μl of a standard solution or of the compounds of the invention are dissolved in 20 mM Hepes pH 7.2 with maximally 7.7% DMSO in individual concentrations. The resulting solution is pre-incubated together with 10 μl (16 ng) of highly purified recombinant autotaxin in a black 384-hole microtiter plate for 30 min at 22° C.
Thereafter, the reaction is started through the addition of 5 μl L-a-lysophosphatidyl-choline (LPC), whereby the final concentration of LPC is 75 μM. The mixture is incubated for 90 min. at 37° C. After the incubation Amplex Red Reagent, peroxidase (Horseradish peroxidase) and choline oxidase are added. The fluorescence is immediately measured at a wavelength of 612 nm with an excitation wavelength of 485 nm in a “Tecan Ultra multimode” fluorescence reader. The activity of autotaxin is indirectly calculated via the amount of detected generated H2O2.
For IC50 analysis, ten serial 1:3 dilutions starting at 30 μM for each compound were run in duplicates.
IC50 values were calculated on normalized data. For normalization, control wells were added to each assay plate and the signal of uninhibited control wells was set to 100%, whereas the signal inhibited by 500 μM C14 LPA, (Avanti Polar Lipids, Cat#857120P) was set to 0%. Curves were fitted and IC50 values calculated by the following model using proprietory analysis software: Y=Bottom+(100−Bottom)/(1+10^((Log IC50−X)*HillSlope))
Where X is the logarithm of concentration. Y is the response;
Y starts at Bottom and goes to Top with a sigmoid shape.
Protein: Recombinant autotaxin (baculoviral Hi5 expression)
Substrate: L-a-lysophosphatidyl choline (chicken egg); Avanti Polar Lipids #830071P
Standard: C14 LPA, Avanti Polar Lipids, Cat#857120P
Detection Reagent Amplex Red Reagent; Invitrogen #A12222; dissolved in 1.923 ml of DMSO peroxidase Type VI-A (horseradish), Sigma #P6782; dissolved in 7.45 ml of test buffer, Choline Oxidase; Sigma #C5896; dissolved in 2.47 ml test buffer
Detection Reagent Mix: 1:100 dilution of Amplex Red Regent in test buffer
Test buffer: 200 mM Tris-HCl, Merck, Cat #1.08219, pH 7.9; 0.1% BSA, lipid free, Roche Cat#775835

Compound | % CTRL (1E−05) (percent of uninhibited control (100%) at 1E−05 M compound) [%] | pIC50
O=C(NCCc1ccc(F)cc1)c1[nH]nc2c1CCN(C(=O)c1ccc3[nH]nnc3c1)C2 [Compound 47, 6-(1H-Benzotriazole-5-carbonyl)-4,5,6,7-tetrahydro-2H-pyrazolo[3,4-c]pyridine-3-carboxylic acid [2-(4-fluoro-phenyl)-ethyl]-amide] |  | > 5.00
O=C(NCc1ccc(SC(F)(F)F)cc1)c1[nH]nc2c1CCN(C(=O)c1ccc3[nH]nnc3c1)C2 [Compound 49, 6-(1H-Benzotriazole-5-carbonyl)-4,5,6,7-tetrahydro-2H-pyrazolo[3,4-c]pyridine-3-carboxylic acid 4-trifluoromethylsulfanyl-benzylamide] |  | > 4.52
O=C(Nc1ccc2[nH]nnc2c1)c1n[nH]c2c1CCN(C(=O)OCc1ccc(C(F)(F)F)cc1)C2 [Compound 50, 3-(1H-Benzotriazol-5-ylcarbamoyl)-1,4,5,7-tetrahydro-pyrazolo[3,4-c]pyridine-6-carboxylic acid 4-trifluoromethyl-benzyl ester] |  | > 6.00
O=C(Nc1ccc2[nH]nnc2c1)c1[nH]nc2c1CCN(C(=O)OCc1cc(C(F)(F)F)cc(C(F)(F)F)c1)C2 [Compound 53, 3-(1H-Benzotriazol-5-ylcarbamoyl)-2,4,5,7-tetrahydro-pyrazolo[3,4-c]pyridine-6-carboxylic acid 3,5-bis-trifluoromethyl-benzyl ester] |  | > 6.00
O=C(Nc1ccc2[nH]nnc2c1)c1[nH]nc2c1CCN(C(=O)OCc1ccc(SC(F)(F)F)cc1)C2 [Compound 56, 3-(1H-Benzotriazol-5-ylcarbamoyl)-2,4,5,7-tetrahydro-pyrazolo[3,4-c]pyridine-6-carboxylic acid 4-trifluoromethylsulfanyl-benzyl ester] |  | > 6.00
O=C(Nc1ccc2[nH]nnc2c1)c1[nH]nc2c1CCN(C(=O)OCc1ccc(OC(F)(F)F)cc1)C2 [Compound 57, 3-(1H-Benzotriazol-5-ylcarbamoyl)-2,4,5,7-tetrahydro-pyrazolo[3,4-c]pyridine-6-carboxylic acid 4-trifluoromethoxy-benzyl ester] |  | > 5.00
COc1ccc(C2CCCN(C(=O)c3[nH]nc4c3CCN(C(=O)c3ccc5[nH]nnc5c3)C4)C2)cc1 (stereo not drawn) [Compound 59, (1H-Benzotriazol-5-yl)-{3-[3-(4-methoxy-phenyl)-piperidine-1-carbonyl]-2,4,5,7-tetrahydro-pyrazolo[3,4-c]pyridin-6-yl}-methanone] |  | > 4.52
O=C(NCc1ccc(OC(F)(F)F)cc1)c1[nH]nc2c1CCN(C(=O)c1ccc3[nH]nnc3c1)C2 [Compound 60, 6-(1H-Benzotriazole-5-carbonyl)-4,5,6,7-tetrahydro-2H-pyrazolo[3,4-c]pyridine-3-carboxylic acid 4-trifluoromethoxy-benzylamide] |  | > 4.52
O=C(NCc1ccc(C(F)(F)F)cc1)c1[nH]nc2c1CCN(C(=O)c1ccc3[nH]nnc3c1)C2 [Compound 61, 6-(1H-Benzotriazole-5-carbonyl)-4,5,6,7-tetrahydro-2H-pyrazolo[3,4-c]pyridine-3-carboxylic acid 4-trifluoromethyl-benzylamide] |  | > 5.00
COC(=O)CC(NC(=O)c1[nH]nc2c1CCN(C(=O)c1ccc3[nH]nnc3c1)C2)c1ccc(C(C)(C)C)cc1 (stereo not drawn) [Compound 63, 3-{[6-(1H-Benzotriazole-5-carbonyl)-4,5,6,7-tetrahydro-2H-pyrazolo[3,4-c]pyridine-3-carbonyl]-amino}-3-(4-tert-butyl-phenyl)-propionic acid methyl ester] |  | > 4.52

Next, values leading:

% CTRL (1E−05) (percent of uninhibited control (100%) at 1E−05 M compound) [%] | pIC50 | Compound
76 |  | O=C(NCc1ccc(Cl)cc1F)c1[nH]nc2c1CCN(C(=O)c1ccc3[nH]nnc3c1)C2 [Compound 46, 6-(1H-Benzotriazole-5-carbonyl)-4,5,6,7-tetrahydro-2H-pyrazolo[3,4-c]pyridine-3-carboxylic acid 4-chloro-2-fluoro-benzylamide]
 | > 5.00 | O=C(Nc1ccc2c(c1)CCN(C(=O)c1ccc3[nH]nnc3c1)C2)OCc1cc(Cl)cc(Cl)c1 [Compound 48, [2-(1H-Benzotriazole-5-carbonyl)-1,2,3,4-tetrahydro-isoquinolin-6-yl]-carbamic acid 3,5-dichloro-benzyl ester]
 | > 6.00 | O=C(NCc1ccc(F)c(Br)c1)c1[nH]nc2c1CCN(C(=O)c1ccc3[nH]nnc3c1)C2 [Compound 51, 6-(1H-Benzotriazole-5-carbonyl)-4,5,6,7-tetrahydro-2H-pyrazolo[3,4-c]pyridine-3-carboxylic acid 3-bromo-4-fluoro-benzylamide]
 | > 6.00 | O=C(Nc1ccc2[nH]nnc2c1)c1[nH]nc2c1CCN(C(=O)OCc1cc(Cl)cc(Cl)c1)C2 [Compound 52, 3-(1H-Benzotriazol-5-ylcarbamoyl)-2,4,5,7-tetrahydro-pyrazolo[3,4-c]pyridine-6-carboxylic acid 3,5-dichloro-benzyl ester]
 | > 5.00 | O=C(Nc1ccc2[nH]nnc2c1)c1[nH]nc2c1CCN(C(=O)OCc1ccc(C(F)(F)F)c(Cl)c1)C2 [Compound 54, 3-(1H-Benzotriazol-5-ylcarbamoyl)-2,4,5,7-tetrahydro-pyrazolo[3,4-c]pyridine-6-carboxylic acid 3-chloro-4-trifluoromethyl-benzyl ester]
 | > 6.00 | O=C(Nc1ccc2[nH]nnc2c1)c1[nH]nc2c1CCN(C(=O)OCc1cccc(C(F)(F)F)c1)C2 [Compound 55, 3-(1H-Benzotriazol-5-ylcarbamoyl)-2,4,5,7-tetrahydro-pyrazolo[3,4-c]pyridine-6-carboxylic acid 3-trifluoromethyl-benzyl ester]
 | > 6.00 | O=C(Nc1ccc2[nH]nnc2c1)c1[nH]nc2c1CCN(C(=O)OCc1ccc(OC(F)(F)F)c(Cl)c1)C2 [Compound 58, 3-(1H-Benzotriazol-5-ylcarbamoyl)-2,4,5,7-tetrahydro-pyrazolo[3,4-c]pyridine-6-carboxylic acid 3-chloro-4-trifluoromethoxy-benzyl ester]
 | > 5.00 | COc1ccc2c(c1)CCC(NC(=O)c1[nH]nc3c1CCN(C(=O)c1ccc4[nH]nnc4c1)C3)C2 (stereo not drawn) [Compound 62, 6-(1H-Benzotriazole-5-carbonyl)-4,5,6,7-tetrahydro-2H-pyrazolo[3,4-c]pyridine-3-carboxylic acid (6-methoxy-1,2,3,4-tetrahydro-naphthalen-2-yl)-amide]
